Assays:
Assay in all cases: relative viability (nuclei count vs DMSO), 5 days (fraction); higher = more cells survive
kb NB 142-70 = compound: C1CSC2=C(C(=O)N1)SC3=C2C=C(C=C3)O [kb NB 142-70]
How it was run: (§1)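 Viability here means nuclei in treated wells divided by nuclei in vehicle wells, reported as the median across plates. Only plates with control CV below 25% and at least one doubling passed. Lung cancer cell lines in 1536-well plates were exposed to five √10-spaced library-drug doses for 5 days and counted from 4× Hoechst images in MetaXpress.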

[1] = compound: NCC(=O)Nc1ccc(-n2nc(C(F)(F)F)cc2-c2ccc3c(ccc4ccccc43)c2)cc1
How it was run: as §1

[2] = compound: C1CSC2=C(C(=O)N1)SC3=C2C=C(C=C3)O [kb NB 142-70] + Nc1nc2[nH]cc(CCc3ccc(C(=O)N[C@@H](CCC(=O)O)C(=O)O)cc3)c2c(=O)[nH]1 [Pemetrexed] (partner 0.2 µM)
How it was run: (§2)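 A single step with final 0.05% Triton X-100, 1% formaldehyde and 1 ug/ml Hoechst fixed the cells and stained nuclei 5 days after treatment. Lung cancer cell lines in 1536-well plates had been treated by pin tool the day after seeding with one drug alone or a fixed anchor-drug dose plus five library-drug doses (not always all listed) in √10 steps, and nuclei were counted on 4× images. Relative viability is the ratio of nuclei in treated wells to nuclei in vehicle wells, taken as the median of duplicate plates.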

kb NB 142-70 + Alpelisib = compound: C1CSC2=C(C(=O)N1)SC3=C2C=C(C=C3)O [kb NB 142-70] + Cc1nc(NC(=O)N2CCC[C@H]2C(N)=O)sc1-c1ccnc(C(C)(C)C(F)(F)F)c1 [Alpelisib] (partner 2 µM)
How it was run: as §2

[3] = compound: NCC(=O)Nc1ccc(-n2nc(C(F)(F)F)cc2-c2ccc3c(ccc4ccccc43)c2)cc1 + CC(C)C[C@H](NC(=O)[C@H](Cc1ccccc1)NC(=O)c1cnccn1)B(O)O [Bortezomib] (partner 0.002 µM)
How it was run: as §2

Cell Line	relative viability (kb NB 142-70; 0.1 µM)	relative viability (kb NB 142-70; 1 µM)	relative viability (kb NB 142-70; 3.162 µM)	relative viability ([1]; 0.02 µM)	relative viability ([1]; 0.06325 µM)	relative viability ([1]; 0.2 µM)	relative viability ([1]; 0.6325 µM)	relative viability ([1]; 2 µM)	relative viability ([2]; first compound 0.1 µM)	relative viability ([2]; first compound 1 µM)	relative viability ([2]; first compound 3.162 µM)	relative viability (kb NB 142-70 + Alpelisib; first compound 0.1 µM)	relative viability (kb NB 142-70 + Alpelisib; first compound 1 µM)	relative viability (kb NB 142-70 + Alpelisib; first compound 3.162 µM)	relative viability ([3]; first compound 0.02 µM)	relative viability ([3]; first compound 0.06325 µM)	relative viability ([3]; first compound 0.2 µM)	relative viability ([3]; first compound 0.6325 µM)	relative viability ([3]; first compound 2 µM)
NCI-H1975	0.902	0.982	0.656	0.91	0.887	1.03	0.972	1.03	0.259	0.309	0.239	0.665	0.604	0.344	0.37	0.414	0.44	0.345	0.426
CAL-12T	0.985	1.07	0.904	0.957	1.01	1.05	0.949	1.08	1.11	1.34	1.27	1.22	1.5	0.644	0.899	1.09	0.967	0.931	1.11
HCC-44	1.01	0.997	1.08	0.996	1.03	0.952	0.984	1	0.554	0.731	0.69	0.772	0.875	0.735	0.968	0.872	0.946	0.875	0.87
EKVX	0.933	0.981	0.988	1.03	1.01	0.971	0.966	1.01	0.35	0.399	0.378	0.854	0.849	0.96	1.05	1.09	1.16	1.02	0.984
NCI-H1651	1.02	0.975	0.821	1	0.947	0.978	0.956	0.998	0.598	0.578	0.552	0.938	0.934	0.364	0.961	0.919	0.977	0.909	0.985
SW 1573	1.02	0.84	0.535	0.94	1.01	1.03	0.971	0.877	0.81	0.744	0.36	0.86	0.549	0.529	1.16	1.28	1.05	0.894	1.02
A-427	1.04	1	0.969	0.766	1.06	0.998	0.994	1.03	0.886	1.01	0.873	1.01	1.23	1.11	0.949	0.919	0.948	0.972	0.984
NCI-H2347	1.05	1.02	0.949	0.99	1.06	1.16	1.11	1.07	0.453	0.449	0.426	0.963	1.09	1.01	0.956	1.18	1.02	1.12	0.945
NCI-H1355	1.02	0.885	1.01	0.971	1.07	0.883	1.02	0.995	0.943	1.06	1.04	0.924	0.86	0.822	1.22	1.28	1.15	1.19	1.29
PC-3 [JPC-3]	1	1.07	1.05	0.996	1.08	1.01	1.02	1.14	1.11	1	0.559	1.06	1.04	0.968	0.763	0.853	0.8	0.816	0.929
NCI-H2228	1.04	1.33	0.699	1	1.04	1.1	1.03	0.797	0.375	0.376	0.24	0.7	0.729	0.494	0.749	0.935	1.01	1.38	0.914
HOP-62	1.03	1.04	0.911	1.03	0.997	0.943	0.928	1.05	0.3	0.361	0.388	1.18	0.777	0.937	0.828	0.859	0.728	0.339	1.02
HARA	0.986	0.971	1.02	0.901	1.09	0.975	1.11	1.07	0.251	0.293	0.225	0.786	0.726	0.516	1.09	1.05	1.22	1.12	1.25
NCI-H838	0.965	0.961	0.963	0.958	0.998	1	0.909	0.864	0.257	0.248	0.245	1.02	1.06	0.91	0.81	0.788	1.06	0.746	0.727
NCI-H1755	0.988	0.986	1.02	1.01	1.03	1.04	0.966	0.986	0.43	0.403	0.519	0.968	0.915	0.929	0.892	0.935	0.958	0.946	0.978
HCC-78	1.08	0.998	0.877	0.993	0.93	1.04	0.944	0.968	0.896	0.907	0.899	0.363	0.348	0.335	0.53	0.568	0.496	0.571	0.505

Cell Line	relative viability (kb NB 142-70; 0.1 µM)	relative viability (kb NB 142-70; 1 µM)	relative viability (kb NB 142-70; 3.162 µM)	relative viability ([1]; 0.02 µM)	relative viability ([1]; 0.06325 µM)	relative viability ([1]; 0.2 µM)	relative viability ([1]; 0.6325 µM)	relative viability ([1]; 2 µM)	relative viability ([2]; first compound 0.1 µM)	relative viability ([2]; first compound 1 µM)	relative viability ([2]; first compound 3.162 µM)	relative viability (kb NB 142-70 + Alpelisib; first compound 0.1 µM)	relative viability (kb NB 142-70 + Alpelisib; first compound 1 µM)	relative viability (kb NB 142-70 + Alpelisib; first compound 3.162 µM)	relative viability ([3]; first compound 0.02 µM)	relative viability ([3]; first compound 0.06325 µM)	relative viability ([3]; first compound 0.2 µM)	relative viability ([3]; first compound 0.6325 µM)	relative viability ([3]; first compound 2 µM)
NCI-H322M	1.03	1	0.92	1.01	0.958	0.92	0.98	0.996	0.614	0.631	0.45	0.813	0.815	0.882	1.41	1.29	1.15	1.18	1.14
NCI-H3122	0.962	0.982	0.969	1.01	1.02	1.01	1.01	1	0.2	0.21	0.289	0.828	0.7	0.442	1.02	1.02	0.984	1	1.05
COR-L23	0.961	1.14	0.507	1.08	1.02	1.07	1	0.882	0.183	0.201	0.196	0.757	0.808	0.282	1.05	0.944	0.962	0.978	0.737
NCI-H2087	1.04	1.29	0.951	0.978	1.09	1.1	1.08	1.02	0.569	0.681	0.527	1.16	1.22	0.858	0.818	0.743	0.621	0.649	0.896
LC-2-ad	1.09	0.977	0.886	0.951	1.08	1	0.968	1.01	0.275	0.23	0.295	0.858	0.958	0.813	1.1	1.03	0.997	0.912	1.12
NCI-H1915	1.04	0.978	0.742	0.86	1.02	0.978	0.963	0.989	0.462	0.532	0.474	1.07	1.08	0.648	0.889	1.01	0.964	0.932	1.03
NCI-H2023	1.07	0.946	0.642	0.952	1.06	0.957	1.06	0.922	0.253	0.283	0.221	0.619	0.602	0.531	0.993	1.13	0.724	0.932	0.904
COR-L 105	0.86	0.88	1.02	0.843	1.02	0.916	0.891	0.94	1.14	1.08	0.925	1.11	0.989	1.03	0.73	0.917	0.744	0.703	1.03
RERF-LC-KJ	0.988	1.04	0.921	1.05	1.01	0.993	1.01	1	0.461	0.477	0.417	0.778	0.827	0.706	1.11	1.19	1.15	1.26	1.14
LXF-289	0.999	1.03	0.975	1.01	1.06	0.988	0.991	1.03	0.86	0.989	0.715	1.03	1.02	0.917	1.05	1.1	0.966	1.02	1.01
PC-14	0.958	0.973	0.954	1.05	1.06	0.954	0.964	1.02	0.134	0.148	0.139	0.902	0.969	0.99	0.966	0.822	1.06	0.895	0.858
NCI-H650	1.02	0.906	0.825	0.866	0.977	0.981	0.866	1.02	1.07	1.03	0.843	1.13	1.19	0.942	0.663	1.02	0.931	0.677	0.907
NCI-H1666	0.951	1.01	0.922	1.05	0.986	1.01	0.961	0.987	0.811	0.977	0.897	0.805	1.01	0.632	0.788	0.769	1.03	0.951	0.906
NCI-H2085	0.964	0.952	0.712	0.961	1.01	1.03	0.982	1.01	0.866	0.947	0.792	0.869	0.901	0.658	1.09	1.05	1.03	1	1.07
NCI-H1734	1.04	0.774	0.517	0.931	1.06	0.955	0.966	0.928	0.395	0.369	0.376	0.659	0.607	0.46	1.1	0.957	0.886	1.02	0.891
NCI-H2170	0.965	1.02	0.825	0.985	0.974	0.967	0.949	0.997	0.273	0.296	0.333	0.76	0.852	0.561	–	–	–	–	–
